Measured values as given in the NIST ThermoML archive (doi:10.1016/j.jct.2013.05.051).

Assay: xn = mol fraction of the nth substance listed
Conditions: Liquid, Vibrating tube method, x2 = 0

CCCCCCC [heptane] + CCCCCCCO
mass density [kg/m3]
Conditions | 298.15 K | 313.15 K | 333.15 K | 353.15 K | 373.15 K | 393.15 K
100 kPa | 679.5 | 666.6 | 648.9 | 631.2 | – | –
1000 kPa | 680.4 | 667.6 | 650 | 632.1 | 613.3 | 593.5
5000 kPa | 684.2 | 671.8 | 655 | 637.8 | 620.1 | 601.7
10000 kPa | 688.6 | 676.7 | 660.6 | 644.3 | 627.7 | 610.6
15000 kPa | 692.8 | 681.3 | 665.8 | 650.3 | 634.5 | 618.4
20000 kPa | 696.7 | 685.6 | 670.6 | 655.7 | 640.7 | 625.4
25000 kPa | 700.4 | 689.5 | 675.1 | 660.8 | 646.3 | 631.7
30000 kPa | 704 | 693.5 | 679.4 | 665.5 | 651.6 | 637.5
35000 kPa | 707.4 | 697.1 | 683.4 | 670 | 656.5 | 643
40000 kPa | 710.7 | 700.5 | 687.3 | 674.1 | 661.1 | 648
45000 kPa | 713.8 | 703.9 | 690.9 | 678.1 | 665.5 | 652.8
50000 kPa | 716.8 | 707.2 | 694.4 | 682 | 669.6 | 657.2
55000 kPa | 719.7 | 710.3 | 697.7 | 685.5 | 673.5 | 661.5
60000 kPa | 722.5 | 713.3 | 701 | 689.1 | 677.3 | 665.5
65000 kPa | 725.2 | 716.1 | 704.1 | 692.4 | 680.8 | 669.3
70000 kPa | 727.9 | 718.9 | 707.1 | 695.7 | 684.3 | 673.1
80000 kPa | 732.9 | 724.2 | 712.8 | 701.7 | 690.8 | 680.1
90000 kPa | 737.7 | 729.3 | 718.2 | 707.5 | 696.9 | 686.5
100000 kPa | 742.3 | 734 | 723.2 | 712.8 | 702.6 | 692.5
110000 kPa | 746.6 | 738.6 | 728.1 | 717.9 | 708 | 698.2
120000 kPa | 750.7 | 742.8 | 732.6 | 722.7 | 713 | 703.4
130000 kPa | 754.6 | 747 | 737 | 727.3 | 717.9 | 708.5
140000 kPa | 758.4 | 751.1 | 741.1 | 731.6 | 722.3 | 713.4
